Measurements published in the supplement of paper PMC10307832.

What was measured:
Experiment in all cases: relative viability (nuclei count vs DMSO), 5 days (fraction); higher = more cells survive
[1] = compound: COc1ccc(-c2ccc3c(N4CCOC[C@@H]4C)nc(N4CCOC[C@@H]4C)nc3n2)cc1CO [AZD8055] + Cc1cc(Nc2cc(N3CCN(C)CC3)nc(Sc3ccc(NC(=O)C4CC4)cc3)n2)n[nH]1 [Tozasertib] (partner 0.1 µM)
Method in brief: (§1)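 Lung cancer cell lines in 1536-well plates got either a single drug or a fixed anchor-drug dose together with five library-drug doses (not always all listed) in √10 steps, by pin tool, on the day after seeding. Nuclei were counted after 5 days, and relative viability is the treated-to-vehicle ratio of nuclei counts. Values are medians of duplicate plates.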

[2] = compound: COc1ccc(-c2ccc3c(N4CCOC[C@@H]4C)nc(N4CCOC[C@@H]4C)nc3n2)cc1CO [AZD8055] + Cc1nc(Nc2ncc(C(=O)Nc3c(C)cccc3Cl)s2)cc(N2CCN(CCO)CC2)n1 [Dasatinib] (partner 0.075 µM)
Method in brief: as §1

[3] = compound: COc1ccc(-c2ccc3c(N4CCOC[C@@H]4C)nc(N4CCOC[C@@H]4C)nc3n2)cc1CO [AZD8055] + CCNC(=O)c1noc(-c2cc(C(C)C)c(O)cc2O)c1-c1ccc(CN2CCOCC2)cc1 [Luminespib] (partner 0.01 µM)
Method in brief: as §1

[4] = compound: COc1ccc(-c2ccc3c(N4CCOC[C@@H]4C)nc(N4CCOC[C@@H]4C)nc3n2)cc1CO [AZD8055] + N=C(N)NC(=N)NCCc1ccccc1 [Phenformin] (partner 250 µM)
Method in brief: as §1

[5] = compound: COc1ccc(-c2ccc3c(N4CCOC[C@@H]4C)nc(N4CCOC[C@@H]4C)nc3n2)cc1CO [AZD8055] + COc1cccc2cc(-c3nc([C@H]4CC[C@H](C(=O)O)CC4)n4ncnc(N)c34)[nH]c12 [OSI-027] (partner 0.5 µM)
Method in brief: as §1

[6] = compound: COc1ccc(-c2ccc3c(N4CCOC[C@@H]4C)nc(N4CCOC[C@@H]4C)nc3n2)cc1CO [AZD8055] + COc1cc2c(Oc3ccc(NC(=O)C4(C(=O)Nc5ccc(F)cc5)CC4)cc3F)ccnc2cc1OCCCN1CCOCC1 [Foretinib] (partner 0.25 µM)
Method in brief: as §1

[7] = compound: COc1ccc(-c2ccc3c(N4CCOC[C@@H]4C)nc(N4CCOC[C@@H]4C)nc3n2)cc1CO [AZD8055]
Method in brief: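 Following overnight incubation at 37 °C, lung cancer cell lines in 1536-well plates were pinned with five library-drug doses (not always all listed) in √10 steps on vehicle-anchored plates. The cells then spent 5 days without medium change before a combined fix, permeabilisation and Hoechst stain, 4× imaging and MetaXpress nuclear counts. Viability is the treated-to-vehicle ratio of nuclei, taken as the median across plates. Only plates with control CV below 25% and at least one doubling passed.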

NCI-H1623
relative viability ([1]; first compound 0.01 µM): 0.46
relative viability ([1]; first compound 0.03162 µM): 0.47
relative viability ([1]; first compound 0.1 µM): 0.397
relative viability ([1]; first compound 0.3162 µM): 0.254
relative viability ([1]; first compound 1 µM): 0.288
relative viability ([2]; first compound 0.01 µM): 0.545
relative viability ([2]; first compound 0.03162 µM): 0.584
relative viability ([2]; first compound 0.1 µM): 0.412
relative viability ([2]; first compound 0.3162 µM): 0.29
relative viability ([2]; first compound 1 µM): 0.234
relative viability ([3]; first compound 0.01 µM): 0.483
relative viability ([3]; first compound 0.03162 µM): 0.434
relative viability ([3]; first compound 0.1 µM): 0.343
relative viability ([3]; first compound 0.3162 µM): 0.347
relative viability ([3]; first compound 1 µM): 0.278
relative viability ([4]; first compound 0.01 µM): 0.586
relative viability ([4]; first compound 0.03162 µM): 0.597
relative viability ([4]; first compound 0.1 µM): 0.521
relative viability ([4]; first compound 0.3162 µM): 0.324
relative viability ([4]; first compound 1 µM): 0.316
relative viability ([5]; first compound 0.01 µM): 0.419
relative viability ([5]; first compound 0.03162 µM): 0.521
relative viability ([5]; first compound 0.1 µM): 0.425
relative viability ([5]; first compound 0.3162 µM): 0.411
relative viability ([5]; first compound 1 µM): 0.379
relative viability ([6]; first compound 0.01 µM): 0.885
relative viability ([6]; first compound 0.03162 µM): 1.03
relative viability ([6]; first compound 0.1 µM): 0.578
relative viability ([6]; first compound 0.3162 µM): 0.438
relative viability ([6]; first compound 1 µM): 0.381
relative viability ([7]; 0.01 µM): 0.916
relative viability ([7]; 0.03162 µM): 1.03
relative viability ([7]; 0.1 µM): 0.79
relative viability ([7]; 0.3162 µM): 0.469
relative viability ([7]; 1 µM): 0.36
